From ChEMBL document CHEMBL4842343, “1,10-Seco-Eudesmane sesquiterpenoids as a new type of anti-neuroinflammatory agents by suppressing TLR4/NF-κB/MAPK pathways” (Eur J Med Chem, 2021)

Assays:
BV-2 [1] = experiment: Cytotoxicity against LPS-stimulated mouse BV-2 cells assessed as reduction in cell viability at 20 uM measured after 24 hrs by MTT assay relative to control; assay type: cell-based; settings: bv-2, 24 h
[2] = Inhibition of LPS-induced NO production in mouse BV-2 cells incubated for 24 hrs by Griess reagent based assay; assay type: functional, cell-based
[3] = Effective permeability of the compound in PBS/EtOH buffer (9:1) at […] after 10 hrs by HPLC-UV based PAMPA-BBB assay; assay type: ADME; settings: read-out: permeability
BV-2 [4] = experiment: Antineuroinflammatory activity in LPS- stimulated mouse BV-2 cells assessed as fold increase in HO-1 expression at 10 uM measured after 24 hrs by immunoblotting analysis relative to control; assay type: functional
[5] = Inhibition of iNOS expression in LPS-stimulated mouse BV-2 cells at 10 uM measured after 24 hrs by western blot analysis relative to control; assay type: functional
[6] = Mus musculus, BV-2, 24 h, read-out: EC50

| Structure (SMILES) | Activity (BV-2 [1]) [%] | EC50 [2, 6] [µM] | also measured |
| --- | --- | --- | --- |
| C=C1C(=O)O[C@@H]2CC(CN3CCCC3)=C([C@@H](C)CCCOC(C)=O)[C@@H](OC(C)=O)[C@H]12 | 95.2 | 30.2 | – |
| C=C1C(=O)O[C@H]2[C@@H]1[C@H](OC(C)=O)C([C@@H](C)CCCOC(C)=O)=C(C)[C@H]2N | 90.9 | 3.8 | – |
| C=C1C(=O)O[C@@H]2CC(CN3CCOCC3)=C([C@@H](C)CCCOC(C)=O)[C@@H](OC(C)=O)[C@H]12 | 91.3 | 14.4 | – |
| CC(=O)OCCC[C@H](C)C1=C(C)C[C@H]2OC(=O)[C@@H](C)[C@H]2[C@@H]1O | 101.2 | > 50 | – |
| O=c1c(O)c(-c2ccc(O)c(O)c2)oc2cc(O)cc(O)c12 [QUERCETIN] | 98.1 | 10.5 | – |
| C=C1C(=O)O[C@H]2[C@@H]1[C@H](OC(C)=O)C([C@@H](C)CCCOC(C)=O)=C(CBr)[C@@H]2Br | 96 | 11.1 | – |
| COc1ccccc1C1=NO[C@]2(C1)C(=O)O[C@@H]1CC(C)=C([C@@H](C)CCCOC(C)=O)[C@@H](OC(C)=O)[C@@H]12 | 99.2 | > 50 | – |
| CC(=O)OCCC[C@H](C)C1=C(C)C[C@H]2OC(=O)[C@]3(CC(c4ccccc4)=NO3)[C@H]2[C@@H]1OC(C)=O | 96.6 | 33 | – |
| C=C1C(=O)O[C@H]2[C@@H]1[C@H](OC(C)=O)C([C@@H](C)CCCOC(C)=O)=C(C)[C@H]2N=[N+]=[N-] | 93.2 | 6.7 | – |
| CC(=O)OCCC[C@H](C)C1=C(C)C[C@H]2OC(=O)[C@]3(CC(c4ccccc4[N+](=O)[O-])=NO3)[C@H]2[C@@H]1OC(C)=O | 97.1 | > 50 | – |
| CC(=O)OCCC[C@H](C)C1=C(C)C[C@H]2OC(=O)[C@]3(CC(c4ccc5ccccc5c4)=NO3)[C@H]2[C@@H]1OC(C)=O | 95.4 | > 50 | – |
| C=C1C(=O)O[C@H]2[C@@H]1[C@H](OC(C)=O)C([C@@H](C)CCCOC(C)=O)=C(C)[C@H]2n1cc(C(=O)OC)nn1 | 63.8 | – | EC50 ([2]; bv-2): Not Active |
| C=C1C(=O)O[C@H]2[C@@H]1[C@H](OC(C)=O)C([C@@H](C)CCCOC(C)=O)=C(C)[C@@H]2c1ccccc1 | 91.7 | 4.5 | – |
| CC(=O)OCCC[C@H](C)C1=C(C)C[C@H]2OC(=O)C(Cc3ccc(O)cc3)=C2[C@@H]1O | 90.1 | 15.9 | – |
| C=C1C(=O)O[C@H]2[C@@H]1[C@H](OC(C)=O)C([C@@H](C)CCCOC(C)=O)=C(C)[C@@H]2Br | 96.1 | 9.1 | – |
| C=C1C(=O)O[C@@H]2CC(CN3CCCCC3)=C([C@@H](C)CCCOC(C)=O)[C@@H](OC(C)=O)[C@H]12 | 92.8 | 18.4 | – |
| C=C1C(=O)O[C@@H]2CC(CN(CC)CC)=C([C@@H](C)CCCOC(C)=O)[C@@H](OC(C)=O)[C@H]12 | 94.1 | 14.6 | – |

| Structure (SMILES) | Activity (BV-2 [1]) [%] | EC50 [2, 6] [µM] | also measured |
| --- | --- | --- | --- |
| NC(=O)N1c2ccccc2C=Cc2ccccc21 [CARBAMAZEPINE] | – | – | Papp at 10 h [3]: 10.7 ×10⁻⁶ cm/s |
| C#Cc1ccc(-c2cn([C@@H]3C(C)=C([C@@H](C)CCCOC(C)=O)[C@@H](OC(C)=O)[C@@H]4C(=C)C(=O)O[C@@H]43)nn2)cc1 | 38.5 | – | EC50 ([2]; bv-2): Not Active |
| CC(=O)OCCC[C@H](C)C1=C(C)C[C@H]2OC(=O)/C(=C/c3ccc(O)cc3)[C@H]2[C@@H]1O | 102.5 | 31.5 | – |
| C=C1C(=O)O[C@@H]2CC(=C)C(Cl)([C@@H](C)CCCOC(C)=O)[C@@H](OC(C)=O)[C@H]12 (stereo partly specified) | 90.9 | 1 | – |
| C=C1C[C@H]2OC(=O)C(=C)[C@H]2C=C1[C@@H](C)CCCOC(C)=O | 54.2 | – | EC50 ([2]; bv-2): Not Active |
| C=C1C(=O)O[C@@H]2CC(C)=C([C@@H](C)CCCOC(C)=O)[C@@H](OC(C)=O)[C@H]12 | 66.5 | 6.3 | Papp at 10 h [3]: 12.3 ×10⁻⁶ cm/s; fold change (FC) (BV-2 [4]): 4; inhibition at 10 µM [5]: 59.7% |
| C=C1C(=O)O[C@H]2[C@@H]1[C@H](OC(C)=O)C([C@@H](C)CCCOC(C)=O)=C(C)[C@H]2n1cc(-c2ccccc2)nn1 | 57.3 | – | EC50 ([2]; bv-2): Not Active |
| C=C1C(=O)O[C@@H]2C[C@@]3(C)O[C@@]3([C@@H](C)CCCOC(C)=O)[C@@H](O)[C@H]12 | 93.4 | 6.5 | – |
| C=C1C(=O)O[C@@H]2C=C(C)C(Cl)([C@@H](C)CCCOC(C)=O)[C@@H](OC(C)=O)[C@H]12 (stereo partly specified) | 90.8 | 2 | – |
| CC(=O)OCCC[C@H](C)C1C(C)C[C@H]2OC(=O)C(C)[C@H]2[C@@H]1O (mixture of isomers) | 98.5 | > 50 | – |
| COc1ccc(C2=NO[C@]3(C2)C(=O)O[C@@H]2CC(C)=C([C@@H](C)CCCOC(C)=O)[C@@H](OC(C)=O)[C@@H]23)cc1 | 96.5 | > 50 | – |
| CC(=O)OCCC[C@H](C)C1=C(C)C[C@H]2OC(=O)[C@]3(CC(c4ccc(F)cc4)=NO3)[C@H]2[C@@H]1OC(C)=O | 101.5 | 39 | – |
| C=C1C(=O)O[C@@H]2CC(C)=C([C@@H](C)CCCOC(C)=O)[C@@H](O)[C@H]12 | 99.5 | 12.5 | Papp at 10 h [3]: 7.5 ×10⁻⁶ cm/s |
| CC(=O)OCCC[C@H](C)C1=C(C)C[C@H]2OC(=O)[C@]3(CC(c4ccc(N(C)C)cc4)=NO3)[C@H]2[C@@H]1OC(C)=O | 9 | 28.6 | – |
| CC(=O)OCCC[C@H](C)C1=C(C)C[C@H]2OC(=O)[C@]3(CC(c4c(F)c(F)c(F)c(F)c4F)=NO3)[C@H]2[C@@H]1OC(C)=O | 92.2 | 16.3 | – |
| C=C1C(=O)O[C@@H]2C[C@@]3(C)O[C@@]3([C@@H](C)CCCOC(C)=O)[C@@H](OC(C)=O)[C@H]12 | 89.5 | 2.8 | – |
| CC(=O)OCCC[C@H](C)C1=C(C)C[C@H]2OC(=O)[C@]3(CC(c4ccccc4Br)=NO3)[C@H]2[C@@H]1OC(C)=O | 98.6 | > 50 | – |
